Measurements reported in the NIST ThermoML archive (doi:10.1021/je400491p).
Numbers after ± are expanded uncertainties.

Settings: 101.33 kPa, Liquid; for viscosity: Capillary tube (Ostwald / Ubbelohde) method; for mass density: Pycnometric method

OCCO [1,2-ethanediol]
Settings | mass density [kg/m3] | viscosity [mPa·s]
313.15 K | 1098.9 ± 1.3 | 9.309 ± 0.11
323.15 K | 1091.7 ± 1.3 | 6.818 ± 0.079
333.15 K | 1084.2 ± 1.3 | 5.027 ± 0.059
343.15 K | 1078.1 ± 1.3 | 3.915 ± 0.046
